Values quoted from earlier work, collected in PMC6359455, “Partial Solvation Parameters of Drugs as a New Thermodynamic Tool for Pharmaceutics” (Pharmaceutics, 2019).

Design: method as in doi:10.1021/acs.iecr.7b02286; Vx (McGowan volume LSER descriptor): unit not given here
Details: common solvents; cited from earlier work

Compound	B (basicity LSER descriptor)	E (excess refractivity LSER descriptor)	S (polarity LSER descriptor)	Vx (McGowan volume LSER descriptor)	A (acidity LSER descriptor)
CC(C)=O [Acetone]	0.493	0.180	0.703	0.547	
Cc1ccccc1 [Toluene]		0.600	0.520	0.857	
CCC(C)O (stereo not shown) [2-Butanol]	0.560	0.220	0.360	0.731	0.330
CCCCCCC [n-Heptane]				1.095	
CC#N [Acetonitrile]	0.330	0.241	0.900	0.404	0.040
CCCCCC [n-Hexane]				0.954	
CCc1ccccc1 [Ethylbenzene]			0.510		
C1COCCO1 [1,4-Dioxane]	0.635	0.330	0.744	0.681	
ClCCl [Dichloromethane]		0.390	0.574	0.494	0.100
CCCO [1-Propanol]		0.240	0.420	0.590	
c1ccccc1 [Benzene]		0.610	0.520	0.716	
ClC(Cl)Cl [Chloroform]		0.430	0.490	0.617	0.150
CCOC(C)=O [Ethyl acetate]	0.450	0.110	0.618	0.747	
CCCCO [1-Butanol]		0.220	0.420	0.731	
O [Water]	0.350	0.000	0.450	0.167	0.820
OC1CCCCC1 [Cyclohexanol]	0.570	0.461	0.557	0.904	0.320
C1CCOC1 [Tetrahydrofuran]	0.479	0.291	0.524	0.622	
CCCCCCCC [n-Octane]				1.236	
CCCCCCCCO [1-Octanol]	0.480	0.200	0.421	1.295	0.370
CCCCOC(C)=O [n-Butyl acetate]	0.449	0.071	0.597	1.028	
Oc1ccccc1 [Phenol]	0.300	0.808	0.890	0.775	0.600
CCC(C)=O [Methyl ethyl ketone]	0.510	0.170	0.697	0.688	
CCO [Ethanol]	0.480	0.250	0.419	0.449	0.370
CCCCCCCCC [n-Nonane]				1.377	
CO [Methanol]	0.470	0.280	0.439	0.308	0.430
OCCO [Ethylene glycol]	0.780	0.400	0.900	0.508	0.580
C1CCCCC1 [Cyclohexane]		0.310	0.010	0.845	
CC(C)O [Isopropanol]	0.560	0.210	0.366	0.590	0.330
ClC(Cl)(Cl)Cl [Carbon tetrachloride]		0.460	0.380	0.739	
CCCCCCCCCC [n-Decane]				1.518	
